Assay results published in patent US20230203059A1, “MACROCYCLIC JAK INHIBITOR AND USES THEREOF” (Biopolar Hongye (Guangdong) Pharmaceutical Co. Ltd., priority 2020, published 2023).

Legend:
Format in all cases: biochemical
[1] = target: JAK2 (Homo sapiens, UniProt O60674); test: JAK kinase activity, homogeneous time-resolved fluorescence (JAK2 reaction system); details: ATP 2 μM, JAK2 protein 0.01 ng/μL
Method in brief: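 IC50 derived by Hill-equation fit of the 665/615 nm time-resolved fluorescence ratio after EDTA-containing detection mix with anti-phosphosubstrate antibody. Preceding 1 h reaction contained 2 μM ATP, 0.01 ng/μL JAK2, substrate, 50 mM Hepes pH 7.0, 5 mM MgCl2, 1 mM DTT.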

[2] = target: TYK2 (Homo sapiens, UniProt P29597); test: JAK kinase activity, homogeneous time-resolved fluorescence (TYK2 reaction system); details: ATP 2 μM, TYK2 protein 0.2 ng/μL; read-out: TYK 2 activity
TYK2, sequence (P29597 whole entry): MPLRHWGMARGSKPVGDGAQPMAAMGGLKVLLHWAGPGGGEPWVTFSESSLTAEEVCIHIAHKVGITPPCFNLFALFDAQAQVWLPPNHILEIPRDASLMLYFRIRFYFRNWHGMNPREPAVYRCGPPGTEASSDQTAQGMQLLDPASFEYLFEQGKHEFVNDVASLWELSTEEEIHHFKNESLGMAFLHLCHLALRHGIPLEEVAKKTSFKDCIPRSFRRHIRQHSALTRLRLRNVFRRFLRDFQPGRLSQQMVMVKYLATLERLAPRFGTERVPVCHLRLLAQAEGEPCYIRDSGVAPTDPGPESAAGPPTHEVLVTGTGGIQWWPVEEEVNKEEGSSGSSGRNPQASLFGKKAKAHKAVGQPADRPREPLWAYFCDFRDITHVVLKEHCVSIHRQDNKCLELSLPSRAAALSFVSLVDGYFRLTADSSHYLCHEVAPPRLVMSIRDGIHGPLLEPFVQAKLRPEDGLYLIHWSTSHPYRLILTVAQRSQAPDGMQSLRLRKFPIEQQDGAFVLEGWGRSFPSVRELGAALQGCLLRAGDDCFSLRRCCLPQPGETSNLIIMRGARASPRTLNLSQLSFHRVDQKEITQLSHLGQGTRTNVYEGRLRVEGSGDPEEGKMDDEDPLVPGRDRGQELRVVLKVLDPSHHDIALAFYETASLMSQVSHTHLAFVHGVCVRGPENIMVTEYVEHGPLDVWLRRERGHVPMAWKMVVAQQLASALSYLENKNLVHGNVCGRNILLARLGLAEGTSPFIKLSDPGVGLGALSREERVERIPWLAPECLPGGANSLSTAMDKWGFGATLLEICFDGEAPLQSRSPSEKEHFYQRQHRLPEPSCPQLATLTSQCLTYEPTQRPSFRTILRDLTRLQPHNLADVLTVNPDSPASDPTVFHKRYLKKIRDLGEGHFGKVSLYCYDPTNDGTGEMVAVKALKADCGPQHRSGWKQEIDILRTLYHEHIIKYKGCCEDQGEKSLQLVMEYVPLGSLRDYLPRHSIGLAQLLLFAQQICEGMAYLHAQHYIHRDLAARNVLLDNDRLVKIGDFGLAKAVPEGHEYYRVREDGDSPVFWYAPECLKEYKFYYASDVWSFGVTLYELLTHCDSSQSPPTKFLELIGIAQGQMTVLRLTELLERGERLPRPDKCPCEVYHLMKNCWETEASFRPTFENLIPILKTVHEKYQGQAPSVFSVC
Method in brief: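 Activity read as the 665 nm/615 nm ratio after adding EDTA-containing detection mix with anti-phospho-substrate antibody and XL-615. Beforehand, 0.2 ng/μL TYK2, 2 μM ATP, substrate and compound reacted 1 h in pH 7.0 Hepes buffer with MgCl2 and DTT. IC50 fitted with Hill-slope equation.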

[3] = target: T1, JAK3 (Homo sapiens, UniProt P52333); test: JAK kinase activity, homogeneous time-resolved fluorescence (JAK3 reaction system); details: ATP 2 μM, JAK3 protein 0.04 ng/μL; read-out: JAK 3 activity
T1 sequence (P52333 1-1124): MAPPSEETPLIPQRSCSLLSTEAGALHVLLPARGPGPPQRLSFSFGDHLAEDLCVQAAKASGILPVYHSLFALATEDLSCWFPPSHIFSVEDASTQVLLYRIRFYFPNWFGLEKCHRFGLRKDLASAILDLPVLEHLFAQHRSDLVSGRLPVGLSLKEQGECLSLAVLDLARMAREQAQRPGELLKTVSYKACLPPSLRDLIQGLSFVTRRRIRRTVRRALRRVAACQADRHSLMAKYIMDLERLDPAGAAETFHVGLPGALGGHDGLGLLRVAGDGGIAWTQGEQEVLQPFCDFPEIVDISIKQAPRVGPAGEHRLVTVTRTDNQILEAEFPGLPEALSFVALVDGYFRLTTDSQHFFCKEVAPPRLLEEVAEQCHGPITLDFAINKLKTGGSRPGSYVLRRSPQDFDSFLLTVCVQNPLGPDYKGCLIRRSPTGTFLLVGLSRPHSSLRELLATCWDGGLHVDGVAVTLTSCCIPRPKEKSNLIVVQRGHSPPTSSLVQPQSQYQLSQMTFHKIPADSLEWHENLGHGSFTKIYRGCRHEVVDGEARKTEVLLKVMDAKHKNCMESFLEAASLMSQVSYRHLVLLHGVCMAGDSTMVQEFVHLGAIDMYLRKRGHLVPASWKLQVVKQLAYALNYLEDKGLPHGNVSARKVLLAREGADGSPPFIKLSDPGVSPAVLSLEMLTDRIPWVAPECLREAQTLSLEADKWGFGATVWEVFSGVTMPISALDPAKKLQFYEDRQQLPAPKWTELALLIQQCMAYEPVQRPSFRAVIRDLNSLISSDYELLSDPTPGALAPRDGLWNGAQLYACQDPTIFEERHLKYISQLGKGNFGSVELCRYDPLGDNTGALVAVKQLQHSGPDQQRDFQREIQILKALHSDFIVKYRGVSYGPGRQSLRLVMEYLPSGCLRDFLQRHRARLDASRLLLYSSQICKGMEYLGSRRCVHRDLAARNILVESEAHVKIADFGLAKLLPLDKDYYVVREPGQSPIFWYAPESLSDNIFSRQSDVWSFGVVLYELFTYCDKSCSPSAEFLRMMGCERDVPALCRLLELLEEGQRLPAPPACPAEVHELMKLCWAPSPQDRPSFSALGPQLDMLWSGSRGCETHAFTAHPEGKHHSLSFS

[4] = target: JAK1 (Homo sapiens, UniProt P23458); test: JAK kinase activity, homogeneous time-resolved fluorescence (JAK1 reaction system); details: ATP 2 μM, JAK1 protein 0.2 ng/μL; read-out: JAK 1 activity
JAK1, sequence (P23458 whole entry): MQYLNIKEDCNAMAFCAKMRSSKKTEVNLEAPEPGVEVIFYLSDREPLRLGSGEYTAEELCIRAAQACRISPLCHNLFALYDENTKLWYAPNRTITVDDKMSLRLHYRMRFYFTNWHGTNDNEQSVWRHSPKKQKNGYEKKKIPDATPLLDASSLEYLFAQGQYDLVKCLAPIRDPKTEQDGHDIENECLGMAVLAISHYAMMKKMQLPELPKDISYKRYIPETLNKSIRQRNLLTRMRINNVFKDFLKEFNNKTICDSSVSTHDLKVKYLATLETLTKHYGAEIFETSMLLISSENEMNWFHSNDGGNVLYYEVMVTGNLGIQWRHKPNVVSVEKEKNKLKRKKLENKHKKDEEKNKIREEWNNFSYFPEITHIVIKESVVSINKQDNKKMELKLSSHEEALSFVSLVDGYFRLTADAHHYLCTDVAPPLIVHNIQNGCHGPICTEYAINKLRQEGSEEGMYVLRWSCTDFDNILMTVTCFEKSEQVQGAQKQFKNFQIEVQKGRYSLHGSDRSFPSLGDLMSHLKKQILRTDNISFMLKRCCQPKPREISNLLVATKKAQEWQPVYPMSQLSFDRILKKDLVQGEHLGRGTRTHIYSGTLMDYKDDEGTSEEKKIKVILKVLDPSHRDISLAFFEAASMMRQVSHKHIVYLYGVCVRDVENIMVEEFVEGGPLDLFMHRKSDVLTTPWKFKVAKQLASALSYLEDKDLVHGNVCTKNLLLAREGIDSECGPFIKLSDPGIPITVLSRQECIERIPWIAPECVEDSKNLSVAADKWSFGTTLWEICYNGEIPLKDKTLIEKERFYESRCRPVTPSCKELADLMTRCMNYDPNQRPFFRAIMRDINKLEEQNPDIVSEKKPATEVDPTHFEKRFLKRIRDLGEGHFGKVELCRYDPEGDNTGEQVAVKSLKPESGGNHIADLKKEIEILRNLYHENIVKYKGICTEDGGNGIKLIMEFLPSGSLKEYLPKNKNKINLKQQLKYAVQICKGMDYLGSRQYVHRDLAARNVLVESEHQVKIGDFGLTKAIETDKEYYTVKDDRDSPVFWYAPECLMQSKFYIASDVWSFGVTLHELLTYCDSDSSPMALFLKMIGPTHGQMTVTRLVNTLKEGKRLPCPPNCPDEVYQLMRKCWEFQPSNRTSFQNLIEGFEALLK
Method in brief: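 HTRF assay: JAK1 (0.2 ng/μL) with 2 μM ATP and substrate in 50 mM Hepes pH 7.0, 5 mM MgCl2, 1 mM DTT, 1 h. Phospho-substrate antibody/XL-615 detection with EDTA; 665/615 nm ratio, excitation 320 nm. IC50 from Hill-type fit against no-enzyme and no-compound controls.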

JAK2, sequence (O60674 whole entry): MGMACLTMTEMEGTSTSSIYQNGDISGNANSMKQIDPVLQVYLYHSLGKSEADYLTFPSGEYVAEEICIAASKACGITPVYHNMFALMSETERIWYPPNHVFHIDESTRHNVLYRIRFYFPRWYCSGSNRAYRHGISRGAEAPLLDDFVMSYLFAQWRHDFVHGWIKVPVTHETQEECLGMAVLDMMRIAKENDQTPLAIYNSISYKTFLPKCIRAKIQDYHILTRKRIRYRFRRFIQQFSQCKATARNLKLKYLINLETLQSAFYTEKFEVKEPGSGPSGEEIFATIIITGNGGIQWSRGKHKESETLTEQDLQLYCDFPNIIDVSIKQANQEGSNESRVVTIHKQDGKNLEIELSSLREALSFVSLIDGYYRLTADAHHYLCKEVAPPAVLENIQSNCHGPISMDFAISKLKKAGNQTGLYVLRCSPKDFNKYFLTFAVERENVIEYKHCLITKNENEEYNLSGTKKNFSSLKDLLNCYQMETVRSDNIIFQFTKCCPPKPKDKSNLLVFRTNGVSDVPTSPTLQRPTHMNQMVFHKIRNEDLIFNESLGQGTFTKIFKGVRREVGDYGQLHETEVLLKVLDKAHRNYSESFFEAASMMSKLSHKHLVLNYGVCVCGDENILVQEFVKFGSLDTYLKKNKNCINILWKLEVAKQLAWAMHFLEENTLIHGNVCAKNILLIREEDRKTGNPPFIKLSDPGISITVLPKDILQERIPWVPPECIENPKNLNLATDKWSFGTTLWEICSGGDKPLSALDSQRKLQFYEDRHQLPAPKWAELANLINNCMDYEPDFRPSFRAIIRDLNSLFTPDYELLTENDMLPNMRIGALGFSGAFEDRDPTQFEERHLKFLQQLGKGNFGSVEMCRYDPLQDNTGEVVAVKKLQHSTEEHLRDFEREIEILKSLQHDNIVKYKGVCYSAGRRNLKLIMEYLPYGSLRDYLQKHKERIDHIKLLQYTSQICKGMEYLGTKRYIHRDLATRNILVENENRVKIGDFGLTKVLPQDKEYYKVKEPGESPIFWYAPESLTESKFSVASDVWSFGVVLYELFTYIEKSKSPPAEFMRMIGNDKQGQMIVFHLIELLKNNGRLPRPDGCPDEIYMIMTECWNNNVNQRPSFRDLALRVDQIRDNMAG

| SMILES | IC50 [1] [nM] | IC50 [2] [nM] | IC50 [3] [nM] | IC50 [4] [nM] |
| --- | --- | --- | --- | --- |
| Nc1cc2ccc1-c1ccnc(n1)Nc1ccc(OCC3CCCOC3)c(c1)COCCCCNC2=O (centres unmarked) [Example 147] | 101 to 1000 | 1000 to 10000 | < 10 | 101 to 1000 |
| O=C1NCCCCOCc2cc(ccc2OCc2ccccc2)Nc2nccc(n2)-c2ccc1cc2[N+](=O)[O-] [Example 117, 4^4-(benzyloxy)-1^2-nitro-6-oxa-3,1,1-diaza-2(4,2)-pyrimidina-1(1,4),4(1,3)-dibenzenacyclododecaphan-12-one] | > 10000 | > 10000 | 101 to 1000 | 1000 to 10000 |
| O=C1NCCCCOCc2cc(ccc2F)Nc2nccc(n2)-c2ccc1cc2[N+](=O)[O-] [Example 68, 4^4-fluoro-1^2-nitro-6-oxa-3,11-diaza-2(4,2)-pyrimidina-1(1,4),4(1,3)-di-benzenacyclododecaphan-12-one] | 1000 to 10000 | > 10000 | 101 to 1000 | 1000 to 10000 |
| O=C1NCCCCOCc2cc(ccc2Cl)Nc2nccc(n2)-c2ccc1cc2F [Example 20, 4^4-chloro-1^2-fluoro-6-oxa-3,11-diaza-2(4,2)-pyrimidina-1(1,4),4(1,3)-di-benzenacyclododecaphan-12-one] | 101 to 1000 | 1000 to 10000 | 11 to 100 | 101 to 1000 |
| CN1CCN(c2ccc3cc2COCCCCNC(=O)c2ccc(c(N)c2)-c2ccnc(n2)N3)CC1 [Example 70, 1^2-amino-4^4-(4-methylpiperazin-1-yl)-6-oxa-3,11-diaza-2(4,2)-pyrimidi-na-1(1,4),4(1,3)-dibenzenacyclo-dodecaphan-12-one] | 101 to 1000 | 1000 to 10000 | 11 to 100 | 1000 to 10000 |
| O=C1NCCCCOCc2cc(ccc2Oc2cccc(F)c2)Nc2nccc(n2)-c2ccc1cc2[N+](=O)[O-] [Example 101, 4^4-(3-fluorophenoxy)-1^2-nitro-6-oxa-3,11-diaza-2(4,2)-pyrimidina-(1,4),4(1,3)-dibenzenacyclododeca-phan-12-one] | 1000 to 10000 | > 10000 | 1000 to 10000 | > 10000 |
| Nc1cc2ccc1-c1ccnc(n1)Nc1ccc(OC3CCCOC3)c(c1)COCCCCNC2=O (centres unmarked) [Example 114, 1^2-amino-4^4-((tetrahydro-2H-pyran-3-yl)oxy)-6-oxa-3,11-diaza-2(4,2)-pyrimidina-1(1,4),4(1,3)-di-benzenacyclododecaphan-12-one] | 11 to 100 | 1000 to 10000 | < 10 | 101 to 1000 |
| CC(C)COc1ccc2cc1COc1ccc(cc1)NC(=O)c1ccc(c([N+](=O)[O-])c1)-c1ccnc(n1)N2 [Example 201, 4^4-isobutoxy-1^2-nitro-6-oxa-3,8-dia-za-2(4,2)-pyrimidina-1,7(1,4),4(1,3)-tribenzenacyclononaphane-9-one] | > 10000 | > 10000 | 1000 to 10000 | > 10000 |
| Nc1cc2ccc1-c1ccnc(n1)Nc1ccc(Oc3ccccc3F)c(c1)COCCCCNC2=O [Example 119, 1^1-amino-4^4-(2-fluorophenoxy)-6-oxa-3,11-diaza-2(4,2)-pyrimidina-1(1,4),4(1,3)-dibenzenacyclo-dodecaphan-12-one] | 1000 to 10000 | > 10000 | 11 to 100 | 1000 to 10000 |
| CC(C)Oc1c(F)cc2cc1COCCCCNC(=O)c1ccc(c(N)c1)-c1ccnc(n1)N2 [Example 85, 1^2-amino-4^5-fluoro-4^4-isopropoxy-6-oxa-3,11-diaza-2(4,2)-pyrimidina-1(1,4),4(1,3)-dibenzenacyclododeca-phan-12-one] | 101 to 1000 | > 10000 | 11 to 100 | 101 to 1000 |
| CC1CCNC(=O)c2ccc(c(N)c2)-c2ccnc(n2)Nc2ccc(OC3CCCOC3)c(c2)COC1 (centres unmarked) [Example 138] | 101 to 1000 | 1000 to 10000 | < 10 | 1000 to 10000 |
| Nc1cc2ccc1-c1ccnc(n1)Nc1ccc(OCC3CCCOC3)c(c1)COc1ccc(cc1)NC2=O (centres unmarked) [Example 213, 1^2-amino-4^4-((tetrahydro-2H-pyran-3-yl)methoxy)-6-oxa-3,8-diaza-2(4,2)-pyrimidina-1,7(1,4),4(1,3)-tri-benzenacyclononaphane-9-one] | 1000 to 10000 | > 10000 | 11 to 100 | 1000 to 10000 |
| O=C1NCCCCOCc2cc(ccc2OCC2CC(F)(F)C2)Nc2nccc(n2)-c2ccc1cc2[N+](=O)[O-] [Example 126, 4^4-((3,3-Difluorocyclobutyl)methoxy)-1^2-nitro-6-oxa-3,11-diaza-2(4,2)-pyrimidina-1(1,4),4(1,3)-di-benzenacyclododecaphan-12-one] | 1000 to 10000 | > 10000 | 101 to 1000 | > 10000 |
| CC1CCNC(=O)c2ccc(c([N+](=O)[O-])c2)-c2ccnc(n2)Nc2ccc(OCC3CCCC3)c(c2)COC1 (centres unmarked) [Example 128, 4^4-(cyclopentylmethoxy)-8-methyl-1^2-nitro-6-oxa-3,11-diaza-2(4,2)-pyrimidina-1(1,4),4(1,3)-dibenzena-cyclododecaphan-12-one] | > 10000 | > 10000 | 101 to 1000 | > 10000 |
| CC1CCNC(=O)c2ccc(c(N)c2)-c2ccnc(n2)Nc2ccc(OCC(F)(F)F)c(c2)COC1 (centres unmarked) [Example 132] | 101 to 1000 | > 10000 | < 10 | 1000 to 10000 |
| C[C@@H]1CCOCc2cc(ccc2OC2CC2)Nc2nccc(n2)-c2ccc(cc2N)C(=O)NC1 [Example 181, (R)-1^2-amino-4^4-cyclopropxy-9-methyl-6-ox-3,11-diaza-2 (4,2)-pyrimidina-1(1,4),4(1,3)-di-benzenacyclododecaphan-12-one] | 11 to 100 | 101 to 1000 | < 10 | 101 to 1000 |
| Cc1cc2ccc1-c1ccnc(n1)Nc1ccc(OC3CCCCC3)c(c1)COCCCCNC2=O [Example 44, 1^2-methyl-4^4-cyclohexyloxy-6-oxa-3,11-diaza-2(4,2)-pyrimidina-1(1,4)-4(1,3)-dibenzenacyclododecaphan-12-one] | 101 to 1000 | 1000 to 10000 | 11 to 100 | 1000 to 10000 |
| O=C1NCCCCOCc2cc(ccc2N2CCOCC2)Nc2nccc(n2)-c2ccc1cc2OC(F)(F)F [Example 22, 4^4-morpholin-1^2-trifluoromethoxy-6-oxa-3,11-diaza-2(4,2)-pyrimidina-1(1,4),4(1,3)-dibenzenacyclododeca-phan-12-one] | 101 to 1000 | 1000 to 10000 | 101 to 1000 | 1000 to 10000 |
| Nc1cc2ccc1-c1ccnc(n1)Nc1ccc(OCC3CCC3)c(c1)COCCCCNC2=O [Example 100, 1^2-amino-4^4-(cyclobutylmethoxy)-6-oxa-3,11-diaza-2(4,2)-pyrimidina-1(1,4),4(1,3)-dibenzenacyclododeca-phan-12-one] | 101 to 1000 | 1000 to 10000 | < 10 | 101 to 1000 |
| O=C1NCCCCOCc2cc(ccc2C2CC2)Nc2nccc(n2)-c2ccc1cc2F [Example 2, 1^2-fluoro-4^4-cyclopropyl-6-oxa-3,11-diaza-2 (4,2)-pyrimidina-1(1,4),4(1,3)-dibenzenacyclododecaphan-12-one] | 101 to 1000 | 101 to 1000 | 101 to 1000 | 101 to 1000 |
